According to EP0348170A2, “Antiviral pyrimidine derivatives” (Lee, Moses Nam Fong, priority 1988, dated 1989):
Converted amounts (≈) assume the structure as drawn.

Key:
HIV = assay: Antiviral assay: inhibition of the killing of HIV-infected T4 lymphocytes (CEM cell line), XTT formazan readout; format: cell-based; details: for therapeutic index (IC50 divided by EC50): in cell culture; for EC50: Human immunodeficiency virus 1, CCRF-CEM, read-out: EC50, Inhibition of the killing of HIV-infected T4-lymphocytes
Experimental: The procedure used in the test for agents active against (HIV) is designed to detect agents acting at any stage of the virus reproductive cycle. The assay basically involves the killing of T4 lymphocytes by HIV. Small amounts of HIV are added to cells, and at least two complete cycles of virus reproduction are necessary to obtain the required cell killing. Agents which interact with virions, cells, or virus gene-products to interfere with viral activities will protect cells from cytolysis. The system is automated in several features to accommodate large numbers of candidate agents, and is generally designed to detect anti-HIV activity. However, compounds which degenerate or are rapidly metabolized in the culture conditions may not show activity in this screen. Also, while every attempt has been made to reduce variability, precise values for EC₅₀, IC₅₀, and Therapeautic Index are not possible. All tests are compared with a positive (AZT-treated) control done at the same time under identical conditions.
• 1. T4 lymphocytes (CEM cell line) are exposed to HIV at a virus to cell ratio approximately 0.05, and plated along with noninfected control cells in 96-well microtiter plates. • 2. The candidate agent is dissolved in dimethyl sulfoxide (unless otherwise instructed), then diluted 1:200 in cell culture medium. Further dilutions (half-log₁₀) are prepared before adding to an equal volume of medium containing either infected or noninfected cells. • 3. Cultures are incubated at 37 °C in a 5% carbon dioxide atmosphere for 6 or 7 days. • 4. The tetrazolium salt, XTT, is added to all wells, and cultures are incubated to allow formazan color development by viable cells. • 5. Individual wells are analyzed spectrophotometrically to quantitate formazan production, and in addition are viewed microscopically for detection of viable cells and confirmation of protective activity. • 6. Drug-treated virus-infected cells are compared with drug-treated noninfected cells and with other appropriate controls (untreated infected and untreated noninfected cells, drug-containing wells without cells, etc.) on the same plate. • 7. Data are reviewed in comparison with other tests done at the same time, and a determination about activity is made.

Vero cells = assay: Effect on the replication of Vero cells; format: cell-based; details: for inhibition at 100 µg/mL: Conc. 100 ug/ml
Experimental: A second experiment shown in Table II herebelow was conducted to show the effects of various compounds on replication of Vero cells. […] This is indicative of much lower toxicity than AZT, (Compound No. 1) which inhibit a much higher percentage of these cells at a given concentration. TABLE II [table]

Compound | therapeutic index (IC50 divided by EC50) (HIV) | inhibition at 100 µg/mL (Vero cells; Chlorocebus sabaeus, Vero) [%] | EC50 (HIV) [µg/mL] | other results
Cc1cn([C@H]2C[C@H](N=[N+]=[N-])[C@@H](CO)O2)c(=O)[nH]c1=O [AZT, 3′-azido-3′-deoxythymidine, reference compound] | about 100 | 86 | – | inhibition at 10 µg/mL (Vero cells; Chlorocebus sabaeus, Vero, Conc. 10 ug/ml): 21%
Cc1cn([C@H]2C=C(n3ccnn3)[C@@H](CO)O2)c(=O)[nH]c1=O [Compound 2, 1-[2′,3′-Didehydro-2′,3′-dideoxy-3′-(1˝-1˝,2˝,3˝-triazolo)ribofuranosyl]thymine] | – | – | > 100 | –
C#CC1=C[C@H](n2cc(C)c(=O)[nH]c2=O)O[C@@H]1CO [Compound 3, 1-(2′,3′-Didehydro-2′,3′-dideoxy-3′-ethynylribofuranosyl)thymine] | – | – | > 100 | –
Cc1cn([C@H]2C=C(C#N)[C@@H](CO)O2)c(=O)[nH]c1=O [Compound 4, 1-(3′-Cyano-2˝,3˝-didehydro-2′,3′-dideoxyribofuranosyl)thymine] | – | – | > 100 | –
Cc1nnc(S(=O)(=O)C2=C[C@H](n3cc(C)c(=O)[nH]c3=O)O[C@@H]2CO)s1 [Compound 5, 1-[2′,3′-Didehydro-2′,3′-dideoxy-3′-(2˝-sulfono-5˝-methyl-1˝,3˝,4˝-thiadiazolo)ribofuranosyl]thymine] | ~170 | 20 | 4.9 (≈ 12.7 µM) | inhibition at 50 µg/mL (Vero cells; Chlorocebus sabaeus, Vero, Conc. 50 ug/ml): 0%; inhibition at 75 µg/mL (Vero cells; Chlorocebus sabaeus, Vero, Conc. 75 ug/ml): 10%; inhibition of Vero cells, in words (Vero cells; fast growing Vero cells): little inhibition
